Assay results taken from patent US11793816B2, “Methods for enhancing cytotoxic cancer therapy through inhibition of ATG4B” (Northwestern University, priority 2019, dated 2023).
Entries after “also recorded” stand apart in the source; their conditions may differ.

Tests used:
U87 cells = experiment: Cell viability assay, AZD2014, 72 h; type: cell-based
Method: (§1) FIG. 5. A mTORC1/2 inhibitor AZD2014 inhibited cell survival, mTORC1 and mTORC2 activities in GSCs and glioma cells. (A) GSC M83 and JK83 and glioma cells U87 were treated with indicated concentration of AZD2014 for 72 h, then cell viability was evaluated. (B) GSC M83 and JK83 were treated with the indicated concentration of AZD2014 for 1 hr, or with 2 μM AZD2014 for the specified time. Cells were collected for immunoblot analysis. β-actin was used as a loading control; Results are representative of 2 independent experiments. *P<0.05, **P<0.01, paired two-way Student's t-test. Data are representative from three independent experiments with similar results.
Glioma cells U87 (from ATCC) were cultured in DMEM (Invitrogen) supplemented with 10% FBS and 1% penicillin and streptomycin. Neural progenitor cells were cultured in NPBM Neural Progenitor Basal medium supplemented with hEGF, hFGF, NSF-1 and GA (Lonza, Cat #: cc-3210, cc-4241 and cc-4242). […]
GSCs with single or combined treatments were cultured for 72 hours in 96-well plates at 2,000 cells per well. Cell viabilities were determined using CellTiter-Glow 2.0 Assay (Promega). […]

GSC JK83 and M83 = experiment: Cell viability assay, AZD2014 and NSC, 72 h; type: cell-based
Method: as §1
(§2) FIG. 6. NSC enhanced the cytotoxicity of a mTORC1/2 inhibitor AZD2014 in GSCs. (A) GSC M83 and JK83 were exposed to DMSO control vs AZD2014 vs NSCs vs AZD2014 in combination with NSC for 72 hr. Cells were collected for immunoblot analysis using indicated antibodies. (B) Immunofluorescence analyses for LC3B puncta in GSC M83 and JK83 cells with indicated treatments. (C and D) GSC M83 and JK83 and/or neural progenitor cells (NPC) were treated as indicated in (A), cell viability was tested at 72 h after treatment (C), and cell apoptosis was measured by Annexin V FACS assay 48 h after treatment. Data are representative from three independent experiments with similar results.
GSCs with single or combined treatments were cultured for 72 hours in 96-well plates at 2,000 cells per well. Cell viabilities were determined using CellTiter-Glow 2.0 Assay (Promega).
(§3) mTOR kinases are crucial regulators of glioma cell growth, proliferation and survival (Akhavan et al., 2010). […] A strong inhibition was achieved by 1 μM with complete block of mTORC1/2 activities at 2 μM (FIG. 5B).
(§4) Since autophagy activation is considered as a cytoprotective factor that contribute to tumor survival when challenged by therapies, it is proposed that block of autophagy activation by NSC would further enhanced the cytotoxicity of dual TORC1/2 inhibitor AZD2014.

[1] = tested on: mTORC1 and mTORC2 activity in GSC M83 and JK83 cells; experiment: Immunoblot of mTORC1 and mTORC2 activity in GSCs; type: cell-based
Method: as §1, §2
IB assays were performed as previously described (Huang et al., 2016b). Specific antibodies were used according to the manufacturer's instructions: LC3B (#3868S), pAKT (Ser473; 4060), pAKT(Thr308; 4056), AKT (4691), pS6(S235/236; 2211), S6 (2317), phosphorylated 4E-binding protein 1 (p4EBP1) (Thr37/46; 2855), 4EBP1 (9644), p-mTOR (Ser2448; 2971S), p-mTOR (Ser2481; 2974S), mTOR (2972S), pULK1(Ser317; 14202T), pULK1 (Ser757; 8054T), ULK1(6439), LAMP2 (49067S) were from Cell Signaling Technology. Anti-β-actin (SC-47778) and anti-SQSTM1/p62 (SC-28359) antibodies were from Santa Cruz Biotechnology. An anti-Ki-67 antibody (AB9260) was from EMD Millipore.
as §3, §4

[2] = tested on: LC3B, p62/SQSTM-1 and LAMP2 in GSC M83 and JK83 cells; experiment: Immunoblot of autophagy markers (LC3B, p62, LAMP2) in GSCs treated with AZD2014 and NSC; type: cell-based; conditions: NSC in the presence of AZD2014
Method: as §1
as §2, with “results. […]” for “results.”

[3] = tested on: LC3B puncta in GSC M83 and JK83 cells; experiment: LC3B immunofluorescence (puncta, autophagosomes); type: cell-based; conditions: NSC in cells treated with AZD2014
Method: as §2
Immunofluorescent staining. GSCs were seeded onto LabTek CC2-treated tissue culture slides (Thermo Fisher) and cultured for 24 hours. Cells were then fixed with 4% formaldehyde (Fisher) for 15 min, and permeabilized with 0.1% Triton X-100, and then blocked with AquaBlock (East Coast Bio, North Berwick, Me.) for 60 minutes. The slides were incubated with indicated primary antibodies according to the manufacturer's instructions. After being washed for three times with PBS-T, cells were incubated with secondary antibody (Alexa 488 and 594, 1:200) and DAPI-containing mounting solution Vectashield (Vector Laboratories). Cells were analyzed on a Nikon inverted microscope Eclipse Ti-U equipped with a digital camera. […]

[4] = tested on: GSC JK83 orthotopic xenografts; experiment: GSC JK83 orthotopic brain tumor xenograft model (survival, BLI, tissue staining); type: in vivo, mice
From the text: FIG. 7. NSC enhance anticancer efficacy of AZD2014 in a patient-derived GSC xenograft model. […] Treatments were started at one week post-implantation. Bioluminescent (BLI) images were taken after the last treatment, and representative images are shown. Scale bar, photons/sec/cm2/steradian. (B) Kaplan-Meier of mice bearing GSC JK83 orthotopic xenografts with indicated treatments. (C) The brains of mice bearing orthotopic xenografts with indicated treatments were collected for immunohistochemical evaluation using indicating antibody. *P<0.05, **p<0.01, […]. Data are representative from three independent experiments with similar results.
Frozen brain tissue sections with GBM xenografts were dried and then fixed in were fixed in 4% paraformaldehyde (PFA) in PBS for 5 minutes. Tissue sections were blocked with AquaBlock (East Coast Bio, North Berwick, Me.) for an hour and then were probed with appropriate primary antibodies 4° C. overnight. Tissue sections were incubated with Alexa 488 or 594 labelled secondary antibodies (1:200) and DAPI-containing mounting solution Vectashield (Vector Laboratories), and representative images were photographed using a Nikon inverted microscope Eclipse Ti-U equipped with a digital camera.
To determine whether the enhancement of AZD2014 therapeutic efficiency by combination with NSC measured in vitro extends to an orthotopic model, GSC JK83 glioma spheres were employed to initiate intracerebral xenografts in mice.

[5] = tested on: intracranial GBM6FL TMZ res xenografts; experiment: Intracranial PDX GBM6FL temozolomide resistant xenograft model; type: in vivo, mice; conditions: compared to vehicle-treated brain xenografts
From the text: FIG. 8. Combination therapy of autophagy inhibitor NSC185058 (NSC) with IR+TMZ suppressed growth of intracranial GBM6FL temozolomide (TMZ) resistant (res) xenografts. […] Mice were imaged at the indicated day after the implantation, and representative BLI images are shown. (B) Changes in the body weight of the mice in each respective treatment groups. (C, D) Effects of NSC, IR, TMZ and the indicated combinations on GBM6FL TMZ res orthotopic xenografts in mice. The luminescence of xenograft tumors formed by indicated treatment. **p<0.01 compared to vehicle controls. Colored scale bars represent photons/s/cm2/steradian. (E, F) Kaplan-Meier (E) and log-rank p value analyses (F) of mice bearing GBM6FL TMZ res orthotopic xenografts with indicated treatments. First and second IR+TMZ+NSC tri-treatments were started at day 7 and day 35 post-implantation, respectively.
GBM6FL TMZ res orthotopic xenograft model was recently established by Dr. Charles David James at Northwestern University as intracranial GBM xenografts after three runs of TMZ treatments and subsequent passages in the flanks of mice.

SMILES	concentration at which cell viability was significantly decreased (U87 cells)	cell viability (GSC JK83 and M83; 72 h, combination compared with monotherapy, AZD2014 alone)	concentration at which cell viability was significantly decreased (GSC JK83 and M83; GSC JK83 and M83, 72 h)	inhibition efficiency on GSCs compared with glioma cells (GSC JK83 and M83; same concentration of AZD2014, GSCs vs U87)	mTOR signaling and ULK1 phosphorylation ([1]; GSC83 and JK83 cells, 72 hr)	concentration giving complete block of mTORC1/2 activities ([1]; GSC M83 and JK83)	concentration giving strong inhibition of mTORC1/2 activities ([1]; GSC M83 and JK83)	time by which inhibition of mTORC1 and mTORC2 was detectable ([1]; GSC M83 and JK83, 2 μM AZD2014)	inhibition of p-S6, p-4EBP1, p-AKT (Ser473) ([1]; GSC M83 and JK83, 1 hr)	autophagy markers (LC3B conversion, p62 and LAMP2 degradation) [2]	autophagosomes number (LC3 B immunofluorescence) [3]	levels of p-4EBP1 and p-AKT in tumor tissues ([4]; AZD2014 alone or in combination with NSC vs control)	mouse survival ([4]; NSC (100 mg/kg), AZD2014 (50 mg/kg), alone or combined, vs control)	response of xenografts to TMZ treatments [5]
CNC(=O)c1cccc(-c2ccc3c(N4CCOC[C@@H]4C)nc(N4CCOC[C@@H]4C)nc3n2)c1 [AZD2014, vistusertib]	0.1 µM	displayed inhibitor effects on GBM cell viability	1 µM	significantly lower than glioma cells	inhibited mTOR induced p-52448/81-mTOR, p-S473-Akt, p-S6, p-S757-ULK1	2 µM	1 µM	≤ 2 h	dose-dependently inhibited p-S6, p-4EBP1, and p-AKT (Ser473)	increased LC3-II conversion (LC3B-II/I ratio) and p62/SQSTM-1 degradation; also recorded: induced autophagic influx by inducing LC3B lipidation and degradation of p62 and LAMP2	increase of autophagosomes number	significantly reduced in the levels of p-4EBP1 and p-AKT	modest but significant effects on mouse survival	–
Cn1nnc2c(C(N)=O)ncn2c1=O [TMZ, temozolomide]	–	–	–	–	–	–	–	–	–	–	–	–	–	no response
